Patent publication US10357477B2, “Anticancer compounds” (REGENTS OF THE UNIVERSITY OF MINNESOTA, priority 2016, dated 2019)

Tests used:
Panc-1 cells = test: Cell viability assay (MTT) in Panc-1 cells; type: cell-based; details: Homo sapiens, antiproliferative activity, 72 h
Method: Panc-1 cells are maintained in RPMI 1640 (Invitrogen 11875) media supplemented with 10% FBS, 1% Penicillin/Streptomycin and 1% Glutamax-1. Cells were plated in 96-well plates at 25×10^4 cells/ml. After 24 hours, compounds were added at 9, 3× dilutions in triplicate from 100 uM final concentration in the appropriate growth media. Plates were incubated for 72 hours at 37° C. in a 5% CO2/95% air humidified atmosphere after which time the media was removed and MTT was added in RPMI phenol red free media. The MTT was removed after 3 hours and formazan crystals were solubilized with 200 μL of isopropanol. Plates were read on a Molecular Devices SpectraMax i3 spectrophotometer at 570 nm for formazan and 690 nm for background subtraction. EC50 values were calculated by fitting the data in GraphPad Prism software.

MIA PaCa-2 cells = test: Cell viability assay (MTT) in MIA PaCa-2 cells; type: cell-based; details: Homo sapiens, antiproliferative activity, 72 h
Method: MIA PaCa-2 cells (CRL-1420, ATCC) were maintained in DMEM media supplemented with 10% FBS, 2.5% HS, 1% GlutaMAX, 1% sodium pyruvate, 100 U/mL penicillin, and 100 μg/mL streptomycin. Cell culture media and additives were purchased from Gibco. Cells were plated in 96-well plates at |1−2.5|×10^4 cells per well in the DMEM growth media. One microliter of a 2-fold serially diluted compound solution in DMSO (Sigma) starting at 20 mM (100 μM final concentration) was added to each well. The final volume in each well was 200 μL, yielding a final DMSO concentration of 0.5%. Control wells contained 0.5% DMSO (100% viability) or 25% DMSO (background) and all reactions were done in triplicate. The plate was incubated for 72 h at 37° C. in a 5% CO2/95% air humidified atmosphere.
Measurement of cell viability was carried out using a modified method of Mosmann based on 3-(4,5-dimethylthiazol-2-yl)-2,5-diphenyltetrazolium bromide (MTT, Sigma). MTT solution was prepared fresh at 1 mg/mL in serum-free and phenol red-free RPMI 1640 media. After 200 μL of MTT solution was added to each well, the plate was incubated as described above for 3 h. The MTT solution was removed, and the formazan crystals were solubilized with 200 μL of isopropanol. The plate was read on a SpectraMax i3 spectrophotometer (Molecular Devices) at 570 nm for formazan and 650 nm for background subtraction. EC50 values were calculated by fitting the data in GraphPad Prism software. EC50 values were determined in triplicate.

| SMILES | EC50 (Panc-1 cells) [µM] | EC50 (MIA PaCa-2 cells) [µM] |
| --- | --- | --- |
| CNC(=O)c1cccc(Cn2nc(C)c(NC(=O)c3ccc(COc4ccc(F)cc4)cc3)c2C)c1 [Compound D6c, 3-((4-(4-((4-Fluorophenoxy)methyl)benzamido)-3,5-dimethyl-1H-pyrazol-1-yl)methyl)-N-methylbenzamide] | 6.9 | 3.1 |
| Cc1nn(Cc2ccccc2C(N)=O)c(C)c1NC(=O)c1ccc(COc2ccccc2)cc1 [Compound A2c, N-(1-(2-Carbamoylbenzyl)-3,5-dimethyl-1H-pyrazol-4-yl)-4-(phenoxymethyl)benzamide] | > 100 | 42 |
| Cc1nn(Cc2cccc(C(=O)N(C)C)c2)c(C)c1NC(=O)c1ccc(COc2ccccc2)cc1 [Compound A4a, 3-((3,5-Dimethyl-4-(4-(phenoxymethyl)benzamido)-1H-pyrazol-1-yl)methyl)-N,N-dimethylbenzamide] | 1.2 | 6.4 |
| CNC(=O)c1cccc(Cn2nc(C)c(NC(=O)c3ccc(COc4cccc5ccccc45)cc3)c2C)c1 [Compound D2, 3-((3,5-Dimethyl-4-(4-((naphthalen-1-yloxy)methyl)benzamido)-1H-pyrazol-1-yl)methyl)-N-methylbenzamide] | 1.3 | 6 |
| CNC(=O)c1cccc(Cn2nc(C)c(NC(=O)c3ccc(COc4ccc(C)cc4)cc3)c2C)c1 [Compound D3c, 3-((3,5-Dimethyl-4-(4-((p-tolyloxy)methyl)benzamido)-1H-pyrazol-1-yl)methyl)-N-methylbenzamide] | 13 | 2.6 |
| CNC(=O)c1cccc(Cn2nc(C)c(NC(=O)c3ccc(COc4ccccc4OC)cc3)c2C)c1 [Compound D4a, 3-((4-(4-((2-Methoxyphenoxy)methyl)benzamido)-3,5-dimethyl-1H-pyrazol-1-yl)methyl)-N-methylbenzamide] | 25 | 8.5 |
| CNC(=O)c1cccc(Cn2nc(C)c(NC(=O)c3ccc(COc4ccc(Cl)cc4)cc3)c2C)c1 [Compound D5c, 3-((4-(4-((4-Chlorophenoxy)methyl)benzamido)-3,5-dimethyl-1H-pyrazol-1-yl)methyl)-N-methylbenzamide] | 2 | 4.2 |
| CNC(=O)c1cccc(Cn2nc(C)c(NC(=O)c3ccc(COc4ccc(C#N)cc4)cc3)c2C)c1 [Compound D7c, 3-((4-(4-((4-Cyanophenoxy)methyl)benzamido)-3,5-dimethyl-1H-pyrazol-1-yl)methyl)-N-methylbenzamide] | 22 | 5.6 |
| CNC(=O)c1cccc(Cn2nc(C)c(NC(=O)c3ccc(COc4cccc(Cl)c4)cc3)c2C)c1 [Compound D5b, 3-((4-(4-((3-Chlorophenoxy)methyl)benzamido)-3,5-dimethyl-1H-pyrazol-1-yl)methyl)-N-methylbenzamide] | 0.038 | 5.9 |
| CNC(=O)c1cccc(Cn2nc(C)c(NC(=O)c3ccc(COc4ccc(OC)cc4)cc3)c2C)c1 [Compound D4c, 3-((4-(4-((4-Methoxyphenoxy)methyl)benzamido)-3,5-dimethyl-1H-pyrazol-1-yl)methyl)-N-methylbenzamide] | 48 | 8 |
| CNC(=O)c1cccc(Cn2nc(C)c(NC(=O)c3ccc(COc4cccc(C(F)(F)F)c4)cc3)c2C)c1 [Compound D9b, 3-((3,5-Dimethyl-4-(4-((3-(trifluoromethyl)phenoxy)-methyl)benzamido)-1H-pyrazol-1-yl)methyl)-N-methylbenzamide] | 0.76 | 2.3 |
| CNC(=O)c1cccc(Cn2nc(C)c(NC(=O)c3ccc(COc4ccccc4Cl)cc3)c2C)c1 [Compound D5a, 3-((4-(4-((2-Chlorophenoxy)methyl)benzamido)-3,5-dimethyl-1H-pyrazol-1-yl)methyl)-N-methylbenzamide] | 9.9 | 6.3 |
| CNC(=O)c1cccc(Cn2nc(C)c(NC(=O)c3ccc(C(=O)Nc4ccccc4)cc3)c2C)c1 [Compound C4, N^1-(3,5-Dimethyl-1-(3-(methylcarbamoyl)benzyl)-1H-pyrazol-4-yl)-N^4-phenylterephthalamide] | 51 | 69 |
| CNC(=O)c1cccc(Cn2nc(C)c(NC(=O)c3ccc(COc4ccccc4C)cc3)c2C)c1 [Compound D3a, 3-((3,5-Dimethyl-4-(4-((o-tolyloxy)methyl)benzamido)-1H-pyrazol-1-yl)methyl)-N-methylbenzamide] | 0.61 | 2.1 |
| CNC(=O)c1cccc(Cn2nc(C)c(NC(=O)c3ccc(OCc4ccccc4)cc3)c2C)c1 [Compound C5, 3-((4-(4-(Benzyloxy)benzamido)-3,5-dimethyl-1H-pyrazol-1-yl)methyl)-N-methylbenzamide] | 6 | 8.2 |
| Cc1nn(Cc2ccccc2[N+](=O)[O-])c(C)c1NC(=O)c1ccc(COc2ccccc2)cc1 [Compound A5c, N-(3,5-Dimethyl-1-(2-nitrobenzyl)-1H-pyrazol-4-yl)-4-(phenoxymethyl)benzamide] | 5.3 | 6 |
| CNC(=O)c1cccc(Cn2nc(C)c(NC(=O)c3ccc(COc4cccc(C)c4)cc3)c2C)c1 [Compound D3b, 3-((3,5-Dimethyl-4-(4-((m-tolyloxy)methyl)benzamido)-1H-pyrazol-1-yl)methyl)-N-methylbenzamide] | 0.56 | 6.2 |
| CNC(=O)c1cccc(Cn2nc(C)c(NC(=O)c3ccc(COc4cccc(F)c4)cc3)c2C)c1 [Compound D6b, 3-((4-(4-((3-Fluorophenoxy)methyl)benzamido)-3,5-dimethyl-1H-pyrazol-1-yl)methyl)-N-methylbenzamide] | 0.21 | 7.7 |
| Cc1nn(Cc2ccccc2N)c(C)c1NC(=O)c1ccc(COc2ccccc2)cc1 [Compound A6c, N-(1-(2-Aminobenzyl)-3,5-dimethyl-1H-pyrazol-4-yl)-4-(phenoxymethyl)benzamide] | 22 | 11 |
| Cc1nn(Cc2cccc([N+](=O)[O-])c2)c(C)c1NC(=O)c1ccc(COc2ccccc2)cc1 [Compound A5b, N-(3,5-Dimethyl-1-(3-nitrobenzyl)-1H-pyrazol-4-yl)-4-(phenoxymethyl)benzamide] | 20 | 11 |

Second part, the compound after the results:

| EC50 (Panc-1 cells) [µM] | EC50 (MIA PaCa-2 cells) [µM] | SMILES |
| --- | --- | --- |
| 11 | 9.2 | Cc1nn(Cc2cccc(C(N)=O)c2)c(C)c1NC(=O)c1ccc(COc2ccccc2)cc1 [Compound A2b, N-(1-(3-Carbamoylbenzyl)-3,5-dimethyl-1H-pyrazol-4-yl)-4-(phenoxymethyl)benzamide] |
| > 100 | 50 | CC(=O)Nc1ccc(Cn2nc(C)c(NC(=O)c3ccc(COc4ccccc4)cc3)c2C)cc1 [Compound A7a, N-(1-(4-Acetamidobenzyl)-3,5-dimethyl-1H-pyrazol-4-yl)-4-(phenoxymethyl)benzamide] |
| 1.6 | 11 | CCNC(=O)c1cccc(Cn2nc(C)c(NC(=O)c3ccc(COc4ccccc4)cc3)c2C)c1 [Compound A4b, 3-((3,5-Dimethyl-4-(4-(phenoxymethyl)benzamido)-1H-pyrazol-1-yl)methyl)-N-ethylbenzamide] |
| > 100 | > 100 | Cc1nn(Cc2ccc(C(N)=O)cc2)c(C)c1NC(=O)c1ccc(COc2ccccc2)cc1 [Compound A2a, N-(1-(4-Carbamoylbenzyl)-3,5-dimethyl-1H-pyrazol-4-yl)-4-(phenoxymethyl)benzamide] |
| 23 | 7.8 | Cc1nn(Cc2ccc([N+](=O)[O-])cc2)c(C)c1NC(=O)c1ccc(COc2ccccc2)cc1 [Compound A5a, N-(3,5-Dimethyl-1-(4-nitrobenzyl)-1H-pyrazol-4-yl)-4-(phenoxymethyl)benzamide] |
| 12 | 2.7 | CC(=O)Nc1cccc(Cn2nc(C)c(NC(=O)c3ccc(COc4ccccc4)cc3)c2C)c1 [Compound A7b, N-(1-(3-Acetamidobenzyl)-3,5-dimethyl-1H-pyrazol-4-yl)-4-(phenoxymethyl)benzamide] |
| 9.7 | 35 | Cc1nn(Cc2cccc(N)c2)c(C)c1NC(=O)c1ccc(COc2ccccc2)cc1 [Compound A6b, N-(1-(3-Aminobenzyl)-3,5-dimethyl-1H-pyrazol-4-yl)-4-(phenoxymethyl)benzamide] |
| 36 | 12 | CNC(=O)c1ccc(Cn2nc(C)c(NC(=O)c3ccc(COc4ccccc4)cc3)c2C)cc1 [Compound A3a, N-(3,5-Dimethyl-1-(4-(methylcarbamoyl)benzyl)-1H-pyrazol-4-yl)-4-(phenoxymethyl)benzamide] |
| 44 | > 100 | Cc1nn(Cc2ccc(N)cc2)c(C)c1NC(=O)c1ccc(COc2ccccc2)cc1 [Compound A6a, N-(1-(4-Aminobenzyl)-3,5-dimethyl-1H-pyrazol-4-yl)-4-(phenoxymethyl)benzamide] |
